Read-outs that look alike come from different tables or passages of the source.

For data set [1], the system named is BuChE. Particulars: read-out: IC50 BuChE, cited from earlier work.
Data set [2] deals with AChE. The following applies: read-out: IC50 AChE, cited from earlier work.
For data set [3], the target named is T1, BuChE (Homo sapiens, UniProt P06276). As to the kind of experiment: Kinetic parameters of enzymatic reaction (Hanes–Woolf), BuChE. The class given is biochemical. Details: The solution of plasma 200-fold diluted with 0.9% NaCl; from tissue; host or cells: citrated plasma from blood of healthy human donors. How it is done:
Kinetic parameters were obtained on the basis of three individual experiments carried out on different biological materials. For this purpose, various concentrations of substrates (ATC and BTC) were used in experiments. The type of inhibition and kinetic parameters of enzymatic reactions were obtained by linear regression using the Hanes–Woolf equations.
(§1) AChE SI (selectivity index) was calculated by using the following formula: SI = IC50 of BuChE/IC50 of AChE. However, BuChE SI was defined as IC50 of AChE/IC50 of BuChE. Maximal velocity (Vmax) and the Michaelis constant (Km) were calculated with the use of linear regression—according to the Hanes–Woolf plot.

For a further data set, the system named is HUVEC cells. As to the kind of experiment: WST-1 viability under AAPH-induced oxidative stress, HUVEC. Format: cell-based, human. The following applies: ½ × TPC (bromperidol 12.5 μg/L, quetiapine 200 μg/L); AAPH 17.5 mmol/L; relative to pure medium control. How it is done:
(§2) WST-1 assay (Takara, Takara Bio Europe, Saint-Germain-en-Laye, France) was used to assess the effects of antipsychotics on the growth of HUVEC and astrocytes. The experiments were conducted as described previously. HUVEC were seeded at a density of 7500 cells, and astrocytes at 5000 cells per well on 96-well microplates and cultured for 24 h followed by treatment with compounds at ½ × TPCmax and TPCmax or pure medium as a control (v = 100 μL) for another 24 h (37 °C, 5% CO2). Subsequently, the cells were washed with culture medium (100 μL) and WST-1 reagent diluted in medium (10 μL of reagent + 90 μL of medium) was added. The plates were incubated at 37 °C in 5% CO2 for another 90 min for HUVEC and 60 min for astrocytes. The absorbance was read at 450 nm using a microplate reader (iMARK, Bio-Rad, Hercules, CA, USA). The cells viability was expressed as a percentage of the control samples which constituted 100% viability.
(§3) Moreover, the WST-1 assay was used to evaluate potential protective effects of antipsychotics on the growth of HUVEC and astrocytes under conditions of AAPH-induced oxidative stress. The experimental conditions were the same as in viability studies. AA at the final concentration of 10 μg/mL was used as an antioxidant control. After reaching the confluence, the antipsychotics were added at concentrations equaling ½ × TPCmax and TPCmax. After 1 h incubation under standard conditions, 50 μL AAPH was added to the wells containing tested compounds or AA. The AAPH concentration was chosen on the basis of preliminary experiments—17.5 mmol/L in HUVEC experiments, and 15.0 mmol/L in the case of astrocytes.

A further data set concerns astrocytes. The data set is described as follows: WST-1 viability under AAPH-induced oxidative stress, astrocytes. Format: cell-based, human. How it is done: as §2, §3
For data set [4], the target named is T2, human plasma butyrylcholinesterase (Homo sapiens, UniProt P06276).
T2 construct: The solution of plasma 200-fold diluted with 0.9% NaCl; from tissue; host or cells: citrated plasma from blood of healthy human donors
T2 sequence (P06276 29-602): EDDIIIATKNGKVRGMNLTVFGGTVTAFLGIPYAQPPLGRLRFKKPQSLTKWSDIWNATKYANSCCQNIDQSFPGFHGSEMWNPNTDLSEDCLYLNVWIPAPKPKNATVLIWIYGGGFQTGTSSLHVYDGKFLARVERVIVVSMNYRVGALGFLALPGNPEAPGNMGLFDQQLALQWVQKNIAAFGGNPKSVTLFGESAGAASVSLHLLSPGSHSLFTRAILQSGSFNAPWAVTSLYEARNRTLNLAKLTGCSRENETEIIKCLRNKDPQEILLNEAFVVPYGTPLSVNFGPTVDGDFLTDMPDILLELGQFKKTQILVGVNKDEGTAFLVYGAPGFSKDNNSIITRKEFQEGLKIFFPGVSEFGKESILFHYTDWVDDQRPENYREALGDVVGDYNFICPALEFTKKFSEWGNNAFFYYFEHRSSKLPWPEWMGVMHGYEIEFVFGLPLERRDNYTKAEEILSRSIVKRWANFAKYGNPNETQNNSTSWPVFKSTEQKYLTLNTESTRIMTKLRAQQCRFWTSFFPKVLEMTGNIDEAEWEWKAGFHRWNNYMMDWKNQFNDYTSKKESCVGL
As to the kind of experiment: BuChE inhibition, modified Ellman's method. Format: biochemical. Particulars: control 0.302 ± 0.029 A/min. How it is done:
(§4) The activity of both cholinesterases (AChE and BuChE) were assessed spectrophotometrically according to the Ellman’s method with some modifications by Worek et al.. This test development included experimental determination of the optimal testing conditions. For all measurements, 37 °C was used as the best temperature for enzymatic determinations in material of human origin.
(§5) The solution of plasma 200-fold diluted with 0.9% NaCl and solution of hemolyzed erythrocytes diluted 400-fold with 0.9% were incubated (37 °C, 15 min) with 5 μL DTNB (0.01 mol/L) and 10 μL tested compound at a wider range of concentration than the therapeutic range in order to assess the overall effect of the compound on human esterases (AChE and BuChE). The controls without antipsychotics, containing only DTNB and diluted plasma or diluted solution of hemolyzed erythrocytes, were prepared. […] The final volume of a sample was 500 μL. […] The maximal velocity of the reaction was determined on the basis of changes in absorbance over time.
as §1

Data set [5] addresses AChE (Homo sapiens, UniProt P22303). As to the kind of experiment: Synergism of antipsychotics with donepezil/rivastigmine (binary mixtures), AChE.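 Also: antipsychotic concentration kept fixed across all measurements, selected from estimated therapeutic plasma levels.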 Particulars: ComboSyn.
The target in data set [6] is T3, recombinant human β-amyloid (1–42) (Homo sapiens, UniProt P05067).
T3 construct: recombinant human β-amyloid (1–42; ultrapure); purchased Sigma-Aldrich (St. Louis, MO, USA)
T3 sequence (P05067 672-713 limits assumed): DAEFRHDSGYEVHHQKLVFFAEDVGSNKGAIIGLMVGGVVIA
As to the kind of experiment: Beta-amyloid aggregation, Thioflavin T fluorescence. Format: biochemical. Particulars: 10 μg/L; time range from 10 min to 24 h incubation. The procedure: Aβ42 peptide was dissolved in DMSO and left to hydrate for a few minutes. The solution was centrifuged at 10,000 rpm for 5 min at 4 °C to separate any precipitated material. The solution at a concentration of 220 μmol/L was stored in small aliquots at a temperature of −30 °C and before each experiment it was restored at 37 °C for 15 min. Test samples containing Aβ42 solution at the final concentration of 20 μmol/L was incubated with antipsychotics at concentrations equaling their TPC and 1/2 × TPC (v = 10 µL). The final volume of the test samples was 100 μL. The positive control constituted a sample of Aβ42 peptide, whereas the negative control contained tannic acid at the final concentrations of 0.1 µmol/L and 10 µmol/L. The fibrillation reaction was set up by addition of thioflavin ThT dye at a concentration of 5 µmol/L. The fluorescence intensity was measured at room temperature with Ex/Em = 440 nm/484 nm (Synergy H1; BioTek, Winooski, VT, USA). The measurements of fluorescence intensity expressed as relative fluorescence units (RFU) were taken at 10, 30, 60 and 90 min and then after 24 and 48 h. The fluorescence intensity measured for control equaled 100% of Aβ aggregation and it was used to estimate the inhibitory properties of the tested antipsychotics.

Data set [7] deals with T1, BuChE. The data set is described as follows: Synergism of antipsychotics with donepezil/rivastigmine (binary mixtures), BuChE.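 Also: combination index derived by median-effect analysis of combined drug effects on the cholinesterase, with values below 1 meaning synergism, exactly 1 additivity and above 1 antagonism.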 The following applies: ComboSyn.
Data set [8] concerns the target T4, human erythrocyte acetylcholinesterase (Homo sapiens, UniProt P22303).
T4 construct: solution of hemolyzed erythrocytes diluted 400-fold; from tissue; host or cells: hemolyzed erythrocytes from blood of healthy human donors
The data set is described as follows: AChE inhibition, modified Ellman's method. The class given is biochemical. Particulars: control 0.258 ± 0.016 A/min. How it is done:
as §4, §5, §1

Setting [9] is: reference values according to the literature ref 28.
Where [10] appears, read: reference values according to the literature ref 31.
Setting [11] is: reference values according to the literature ref 32.
[12] abbreviates: reference values according to the literature ref 33.
Where [13] appears, read: rivastigmine 5 μmol/L + antipsychotic at TPCmax.

T1 sequence (P06276 29-602): as the sequence (P06276 29-602) above
Sequence of AChE (P22303 32-617 isoform P22303-2 limits assumed): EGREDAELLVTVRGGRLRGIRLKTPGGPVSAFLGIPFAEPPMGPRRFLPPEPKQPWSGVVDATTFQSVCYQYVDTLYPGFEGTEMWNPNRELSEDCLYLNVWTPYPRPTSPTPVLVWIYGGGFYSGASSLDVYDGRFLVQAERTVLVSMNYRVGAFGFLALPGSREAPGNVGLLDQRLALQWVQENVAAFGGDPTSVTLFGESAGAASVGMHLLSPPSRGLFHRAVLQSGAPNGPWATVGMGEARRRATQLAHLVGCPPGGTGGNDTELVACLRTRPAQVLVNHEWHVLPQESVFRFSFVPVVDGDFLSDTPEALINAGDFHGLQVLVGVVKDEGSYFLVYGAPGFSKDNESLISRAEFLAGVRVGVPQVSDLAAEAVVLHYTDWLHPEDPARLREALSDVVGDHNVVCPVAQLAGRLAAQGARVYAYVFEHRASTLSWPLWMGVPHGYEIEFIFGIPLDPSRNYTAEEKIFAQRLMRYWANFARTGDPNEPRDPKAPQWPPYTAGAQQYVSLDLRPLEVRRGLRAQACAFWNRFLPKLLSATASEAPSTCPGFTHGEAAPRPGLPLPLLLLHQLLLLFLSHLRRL
T4 sequence (P22303 32-617 isoform P22303-2 limits assumed): as above

In the case of `COc1cc2c(cc1OC)C(=O)C(CC1CCN(Cc3ccccc3)CC1)C2` (centres unmarked) [Donepezil, donepezil], the IC50 in the data set with BuChE [1] (reference values according to the literature ref 29) is […]; with BuChE [1] (reference values according to the literature ref 30) it was […].
Take `CCN(C)C(=O)Oc1cccc([C@H](C)N(C)C)c1` [Rivastigmine, rivastigmine]: the IC50 in the data set on AChE [2] (setting [9]) was […]; with AChE [2] (setting [10]), […]; with AChE [2] (setting [11]), […]; with AChE [2] (setting [12]), […]; with BuChE [1] (setting [9]) it was […]; in the data set with BuChE [1] (setting [10]), […]. Moreover, the results for the half-maximal inhibitory concentration (IC50) with BuChE [1] (setting [11]) and in the data set with BuChE [1] (setting [12]) were […] and […], respectively. Besides, the “Vmax(i) BuChE” value at BuChE [3] (compound at its IC50) is […]. For the same compound, the “type of inhibition of BuChE” value at BuChE [3] (from Km(i), Vmax(i) vs Km, Vmax, mixed inhibition) was “noncompetitively”.
Take `O=C(CCCN1CCC(n2c(O)nc3ccccc32)CC1)c1ccc(F)cc1` [Benperidol, benperidol]: the “viability of HUVEC under AAPH” value in the data set on HUVEC cells amounted to 82.9%. In addition, the “astrocyte viability compared with the control (pure AAPH)” value with astrocytes (benperidol 5 and 10 μg/L, penfluridol 12.5 μg/L, pimozide 15 μg/L, promazine 25 and 50 μg/L) is reported as “statistically significant increase”. The “astrocyte viability under AAPH” value in the data set with astrocytes (½ × TPC (benperidol 5 μg/L, bromperidol 12.5 μg/L), AAPH 15 mmol/L) turned out to be 81.9%. In addition, the BuChE reaction velocity turned out to be 0.283 ± 0.029 A/min in data set [4] (75 µg/L) and 0.279 ± 0.021 A/min in [4] (100 µg/L). Also, the “CI (combination index), AChE” value is reported as 0.83 on AChE [5] (donepezil 0.005 μmol/L + antipsychotic at TPCmax, CI < 1 synergism, > 1 antagonism); 1.09 at AChE [5] (donepezil 0.01 μmol/L + antipsychotic at TPCmax); 1.04 on AChE [5] (donepezil 0.02 μmol/L + antipsychotic at TPCmax); 1.02 at AChE [5] (donepezil 0.05 μmol/L + antipsychotic at TPCmax); 1.24 on AChE [5] (donepezil 0.1 μmol/L + antipsychotic at TPCmax); 0.31 on AChE [5] (setting [13]). Moreover, the “CI (combination index), AChE” value on AChE [5] (rivastigmine 10 μmol/L + antipsychotic at TPCmax) was 0.44; at AChE [5] (rivastigmine 15 μmol/L + antipsychotic at TPCmax) it was 0.48; on AChE [5] (rivastigmine 25 μmol/L + antipsychotic at TPCmax) it was 0.57; at AChE [5] (rivastigmine 40 μmol/L + antipsychotic at TPCmax) it was 0.62; at AChE [5] (rivastigmine 50 μmol/L + antipsychotic at TPCmax), 0.63; on AChE [5] (rivastigmine 75 μmol/L + antipsychotic at TPCmax) it was 0.66. The “CI (combination index), AChE” value on AChE [5] (rivastigmine 100 μmol/L + antipsychotic at TPCmax) is given as 0.65. In addition, the “inhibition of Aβ” value in data set [6] was 42.1–53.3%. The “CI (combination index), BuChE” value at BuChE [7] (donepezil 2 μmol/L + antipsychotic at TPCmax) is 0.40; at BuChE [7] (donepezil 5 μmol/L + antipsychotic at TPCmax), 0.50; at BuChE [7] (donepezil 10 μmol/L + antipsychotic at TPCmax), 0.57; on BuChE [7] (donepezil 20 μmol/L + antipsychotic at TPCmax) it was 0.60; on BuChE [7] (donepezil 50 μmol/L + antipsychotic at TPCmax), 0.69; on BuChE [7] (donepezil 100 μmol/L + antipsychotic at TPCmax), 0.84. In addition, the “CI (combination index), BuChE” value on BuChE [7] (rivastigmine 0.05 μmol/L + antipsychotic at TPCmax) is recorded as 0.27; at BuChE [7] (rivastigmine 0.1 μmol/L + antipsychotic at TPCmax) it was 0.32; on BuChE [7] (rivastigmine 0.25 μmol/L + antipsychotic at TPCmax) it was 0.56; on BuChE [7] (rivastigmine 0.5 μmol/L + antipsychotic at TPCmax) it was 0.91; at BuChE [7] (rivastigmine 0.75 μmol/L + antipsychotic at TPCmax), 0.95; at BuChE [7] (rivastigmine 1 μmol/L + antipsychotic at TPCmax) it was 1.00. For the same compound, the “CI (combination index), BuChE” value on BuChE [7] (rivastigmine 2.5 μmol/L + antipsychotic at TPCmax) stood at 1.08; at BuChE [7] (setting [13]) it was 1.00. Further, the AChE reaction velocity was 0.250 ± 0.015 A/min in data set [8] (75 µg/L) and 0.239 ± 0.014 A/min in data set [8] (100 µg/L).

These data come from article PMC9102502, “The Influence of Selected Antipsychotic Drugs on Biochemical Aspects of Alzheimer’s Disease” (International Journal of Molecular Sciences, 2022).
